# Assay results as given in patent US20080293781A1, “Salicylic Acid Derivatives” (priority 2005, published 2008).
# Like-named read-outs stand apart in the source and are kept apart here.
# Experiments:
# [1] = target: T1, cyclooxygenase type-2 (COX2) (Mus musculus, UniProt Q05769); assay: Inhibition of COX2 activity (PGE2 formation) in LPS/IFNγ-induced RAW 264.7 macrophages; conditions: RAW264.7, read-out: COX2 inhibition %
# T1 sequence (Q05769 18-604): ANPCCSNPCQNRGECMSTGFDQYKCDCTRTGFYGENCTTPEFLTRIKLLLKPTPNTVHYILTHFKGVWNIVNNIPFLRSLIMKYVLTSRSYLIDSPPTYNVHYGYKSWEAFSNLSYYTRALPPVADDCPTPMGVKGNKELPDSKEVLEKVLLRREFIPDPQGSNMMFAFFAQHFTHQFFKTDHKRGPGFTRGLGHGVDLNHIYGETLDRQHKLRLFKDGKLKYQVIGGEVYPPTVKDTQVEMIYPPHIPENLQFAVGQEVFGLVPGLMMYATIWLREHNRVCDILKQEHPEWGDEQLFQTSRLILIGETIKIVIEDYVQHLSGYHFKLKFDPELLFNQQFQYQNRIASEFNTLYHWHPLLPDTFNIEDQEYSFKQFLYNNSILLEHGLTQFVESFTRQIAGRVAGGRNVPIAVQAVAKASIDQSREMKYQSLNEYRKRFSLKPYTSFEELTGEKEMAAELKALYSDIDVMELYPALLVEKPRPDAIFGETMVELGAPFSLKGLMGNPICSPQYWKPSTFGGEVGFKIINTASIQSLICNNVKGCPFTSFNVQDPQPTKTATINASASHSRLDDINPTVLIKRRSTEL
# Protocol: The inhibitory activity on COX2 was, instead, analyzed following the induction of this protein with 1 μg/mL of the bacterial endotoxin, lipopolysaccharide (LPS) and 10 ng/mL of interferon-γ (IFNγ) that were applied for 16 h to RAW 264.7 macrophages previously treated with 100 μM of the irreversible blocker, aspirin (ASA). Arachidonic acid served as substrate for the enzyme and the extent of PGE2 formation taken as index of COX2 activity.
# [2] = target: T2, cyclooxygenase type-1 (COX1) (Mus musculus, UniProt P22437); assay: Inhibition of COX1 activity (PGE2 release) in resting RAW 264.7 macrophages; format: cell-based; conditions: for Type of inhibition “Irreversibile”: 30 min exposure, substrate applied directly or after extensive washing, difference less than 5% = irreversible
# T2 construct: cyclooxygenase type-1 (COX1) activity was estimated in resting RAW 264.7 macrophages; endogenous in cells; host or cells: RAW 264.7 macrophages (resting)
# T2 sequence (P22437 27-602): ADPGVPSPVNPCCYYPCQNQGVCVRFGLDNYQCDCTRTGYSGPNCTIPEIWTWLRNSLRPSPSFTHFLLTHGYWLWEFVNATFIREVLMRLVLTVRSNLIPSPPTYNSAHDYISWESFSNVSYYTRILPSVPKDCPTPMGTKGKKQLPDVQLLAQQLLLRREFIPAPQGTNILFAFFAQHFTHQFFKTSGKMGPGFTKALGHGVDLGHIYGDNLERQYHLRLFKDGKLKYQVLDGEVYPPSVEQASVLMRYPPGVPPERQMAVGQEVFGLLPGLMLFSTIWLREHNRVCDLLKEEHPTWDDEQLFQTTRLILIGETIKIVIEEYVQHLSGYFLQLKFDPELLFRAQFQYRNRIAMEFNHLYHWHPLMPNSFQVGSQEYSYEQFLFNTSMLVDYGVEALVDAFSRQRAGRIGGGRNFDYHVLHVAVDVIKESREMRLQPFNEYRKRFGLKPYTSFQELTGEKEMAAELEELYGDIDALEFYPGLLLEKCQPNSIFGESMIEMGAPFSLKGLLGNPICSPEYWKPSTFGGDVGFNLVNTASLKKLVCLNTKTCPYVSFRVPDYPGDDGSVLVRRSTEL
# Protocol: The extent and type of inhibitory effects of this class of compounds on cyclooxygenase type-1 (COX1) activity was estimated in resting RAW 264.7 macrophages.
# The type of inhibition (irreversible vs. reversible) was determined in resting conditions by exposing the cells to the test compounds for 30 min followed by the application of the substrate either directly or after extensive washing and then incubated for additional 15 min. The presence of residual activity (difference less than 5% vs. that recorded without washing) was taken as index of the irreversible nature of the inhibitory effects of the compounds.
# [3] = system: rats (carrageenan paw edema); assay: Anti-inflammatory activity: carrageenan-induced paw edema in conscious rats; format: in vivo; set-up: concentration or dose not given beside the values; conditions: rat, intragastric, paw volume 3 hours after carrageenan, mean ± SEM
# Protocol: Paw edema was induced in conscious rats by subplantar injection of carrageenan (0.1 ml of 1% carrageenan suspension in carboxymethylcellulose 1%). Immediately after carrageenan injection, compounds or vehicle (CMC, 1%) were administered intragastrically to different groups of rats in a volume of 10 ml/kg. Paw volume was measured with a plethysmometer (Basile, Comerio, Italy) immediately before carrageenan injection and 3 hours afterwards. Paw edema was determined in each rat by subtracting the initial volume displacement (pre-drug) from the subsequent post-carrageenan measurement. Edema was expressed as the percent increase in paw volume relative to the preinjection value for each animal. Statistical analysis was performed with ANOVA followed by Newman Keuls test.
# [4] = Hydrolysis in acidic medium (pH 1); format: physicochemical; conditions: HCl 0.1M, 250 μM, 37°C
# Protocol: A solution of each compound (10 mM) in acetonitrile was added to a HCl 0.1M preheated at 37° C., the final concentration of the compound was 250 μM. Resulting solution was maintained at 37±0.5° C. and at appropriate time intervals a 20 μL aliquote of reaction solution was analysed by RP-HPLC.
# (§1) The reverse-phase HPLC procedure allowed separation and quantitation of remaining salicylic ester and of salicylic acid.
# (§2) HPLC analyses were performed with a HP 1100 chromatograph system (Agilent Technologies, Palo Alto, Calif., USA) equipped with a quaternary pump (model G1311A), a membrane degasser (G1379A), a diode-array detector (DAD) (model G1315B) integrated in the HP1100 system. Data analysis was done using a HP ChemStation system (Agilent Technologies). The analytical column was a Nucleosil 100-5C18 Nautilus (250×4.6 mm, 5 μm particle size) (Macherey-Nagel). The mobile phase consisting of acetonitrile/water (55/45) with 0.1% trifluoroacetic acid and the flow-rate was 1.2 mL/min. The injection volume was 20 μL (Rheodyne, Cotati, Calif.). The column effluent was monitored at 226 nm (for salicylic esters) and 240 nm (for salicylic acid) referenced against a 600 nm wavelength. Quantitation was done by comparison of peak areas with standards chromatographed under the same conditions.
# (§3) The hydrolysis of all esters followed first-order kinetics; the observed pseudo-first-order rate constants (kobs) for the hydrolysis were calculated from the slopes of linear plots of the natural logarithm of percent remaining salicylic ester against time and the corresponding half-lives (t1/2) were obtained from: […]
# [5] = Hydrolysis in human serum; format: in vitro ADME; conditions: 37°C, RP-HPLC, half-life of hydrolysis, read-out: Uman Serum stability (t1/2 h) (converted)
# Protocol: A solution of each compound (10 mM) in acetonitrile was added to human serum (Sigma) preheated at 37° C., the final concentration of the compound was 250 μM. Resulting solution was incubated at 37±0.5° C. and at appropriate time intervals 500 μL of reaction mixture was withdrawn and added to 750 μL of acetonitrile containing 0.1% trifluoroacetic acid in order to deproteinize the serum. Sample was sonicated, vortexed and then centrifuged for 10′ at 2150 g, The clear supernatant was filtered by 0.45 μm PTFE filters (Alltech) and analysed by RP-HPLC.
# as §1, §2, §3
# [6] = system: Male Wistar rats (glandular mucosa of the stomach); assay: Gastrolesive activity: gastric mucosal lesion index in rats; format: in vivo; conditions: rat, aspirin 120 mg/kg intragastric or equimolar doses, 3 hours after treatment, mean ± SEM
# Protocol: Male Wistar rats, […] (Harlan, S. Pietro al Natisone, Italy) were individually housed in hanging stainless-steel cages with grid floors, at constant room temperature (25±1° C.) and humidity (60±5%), with an artificial 12:12 h light/dark cycle. They were deprived of food but not of water 24 h before the experiments. Groups of rats (n=8-10) were given aspirin (Acetylsalicylic acid) 120 mg/kg by intragastric route or equimolar doses of the compounds under study. Rats were sacrificed 3 hours after the administration of the compounds. Immediately after the sacrifice, the stomachs were removed, opened along the lesser curvature and examined for the assessment of mucosal lesions, the stomachs were laid on a flat surface under a stereomicroscope. The glandular mucosa was examined and each individual hemorrhagic lesion was measured along its greatest length (<1 mm: rating=1; 1-2 mm: rating=2; >2 mm: rating according to their greatest length). The lengths of the lesions were summed to give an overall total, designated as the lesion index, for each stomach. Statistical analysis was performed with ANOVA followed by Newman Keuls test.
# [7] = 10 μM, resting RAW 264.7 macrophages, arachidonic acid 1 μM
# [8] = 30 μM, resting RAW 264.7 macrophages, arachidonic acid 1 μM
# [9] = RAW264.7, read-out: COX1 inhibition %
SMILES,melting point,inhibition at 1 µM [1],inhibition at 10 µM [1],inhibition at 30 µM [1],"COX1 inhibition % [2, 7]","COX1 inhibition % [2, 8]",Type of inhibition “Irreversibile” [2],Anti inflammatory activity Paw edema (% increase) [3],pH 1 stability (% after 3 h) [4],half-life at 250 μM [5],Gastrotoxicity Lesion index (mm) [6],further results
O=C(Cc1ccc(OCC(CO[N+](=O)[O-])O[N+](=O)[O-])cc1)Oc1ccccc1C(=O)O (centres unmarked),94.5 to 95 °C,,,,,,,,,,,
"O=C(CCCO[N+](=O)[O-])Oc1ccccc1C(=O)O [(2), 2-{[4-(nitrooxy)butanoyl]oxy}benzoic acid]",,6%,15%,44%,62%,77%,YES,,,,,"inhibition at 1 µM [2, 9]: 21%"
"O=C(CCCCO[N+](=O)[O-])Oc1ccccc1C(=O)O [(3), 2-{[5-(nitrooxy)pentanoyl]oxy}benzoic acid]",,5%,27%,43%,66%,77%,YES,,,,,"inhibition at 1 µM [2, 9]: 11%"
"CC(=O)Oc1ccccc1C(=O)O [Acetylsalicylic acid, reference compound]",,2%,5%,20%,27%,53%,YES,32.95 ± 3.19 %,>90%,1.37 h,44.75 ± 4.66 mm,"inhibition at 1 µM ([2]; RAW264.7, 1 μM, resting RAW 264.7 macrophages, arachidonic acid 1 μM, read-out: COX1 inhibition %): < 2%"
"O=C(CCOc1no[n+]([O-])c1-c1ccccc1)Oc1ccccc1C(=O)O [Compound 12, 2-[(3-{[5-oxido-4-phenyl-1,2,5-oxadiazol-3-yl]oxy}propanoyl)oxy]benzoic acid]",152 to 153.9 °C,,,,,,,,,,,
"O=C(CCO[N+](=O)[O-])Oc1ccccc1C(=O)O [Compound (1), 2-{[3-(nitrooxy)propanoyl]oxy}benzoic acid]",,,,,,,,,>90%,0.26 h,,
"O=C(CCC(CO[N+](=O)[O-])O[N+](=O)[O-])Oc1ccccc1C(=O)O (centres unmarked) [Compound (6), 2-{[4,5-bis(nitrooxy)pentanoyl]oxy}benzoic acid]",,,,,,,,29.95 ± 7.30 %,>85%,4.08 h,0.50 ± 0.22 mm,
"O=C(CCCC(CO[N+](=O)[O-])O[N+](=O)[O-])Oc1ccccc1C(=O)O (centres unmarked) [Compound (7), 2-{[5,6-bis(nitrooxy)hexanoyl]oxy}benzoic acid]",,,,,,,,26.19 ± 3.58 %,>85%,4.87 h,0.85 ± 0.64 mm,
"O=C(CCOc1no[n+]([O-])c1S(=O)(=O)c1ccccc1)Oc1ccccc1C(=O)O [Compound (11), 2-[(3-{[5-oxido-4-(phenylsulfonyl)-1,2,5-oxadiazol-3-yl]oxy}propanoyl)oxy]benzoic acid]",169 to 170 °C,,,,,,,34.88 ± 4.69 %,>90%,0.44 h,0.50 ± 0.31 mm,
"CCC(=O)Oc1ccccc1C(=O)O [Propanoylsalicylic acid, reference compound]",,,,,,,,48.13 ± 6.54%,,,52.00 ± 11.78 mm,
